Test results from article PMC4720136 (Journal of the American Chemical Society, 2015).

Target: EncM (Streptomyces maritimus, UniProt Q9KHK2)
Assay: stopped-flow flavin reduction at […] nm, hyperbolic fit of kobs
Assay type: biochemical
Conditions: read-out: apparent Kd; EncM-Flox (oxidized, inactive flavin form), anaerobic, 4 °C, 0.1 M Tris-H2SO4 pH 7.5, 10% glycerol

Row | Kd [mM] | SMILES
1 | 0.26 ± 0.01 | NC(=O)C1=CN([C@@H]2O[C@H](COP(=O)(O)OP(=O)(O)OC[C@H]3O[C@@H](n4cnc5c(N)ncnc54)[C@H](OP(=O)(O)O)[C@@H]3O)[C@@H](O)[C@H]2O)C=CC1 [NADPH]
2 | 9.3 ± 0.3 | NC(=O)C1=CN([C@@H]2O[C@H](COP(=O)(O)OP(=O)(O)OC[C@H]3O[C@@H](n4cnc5c(N)ncnc54)[C@H](O)[C@@H]3O)[C@@H](O)[C@H]2O)C=CC1 [NADH]
